Experimental data from PMC12645191, “Dicarboxylate and dicarboxylic acid appended supramolecular self-associating amphiphiles as antimicrobial agents against high priority bacterial pathogens” (Organic & Biomolecular Chemistry, 2025).
Values joined by “and” are separate entries in the source; they are usually repeats but may differ in a detail not shown here. Identical values can stand only once.

Experiments:
P. aeruginosa PAO1 = assay: inhibition of bacterial growth, OD600 after 20 h; format: cell-based, Pseudomonas aeruginosa; conditions: SSA 5.0 mM, 2.5% ethanol, negative = enhanced growth, listed as 5
Method: (§1) With the self-associative properties of 1–10 established, the antimicrobial activity of these SSAs were determined against a panel of clinically relevant, high-priority pathogens including: P. aeruginosa PAO1; Klebsiella pneumonia (K. pneumoniae) M6; E. coli NCTC 12923; Acinetobacter baumannii (A. baumannii) ATCC 17978; S. aureus ATCC 9144; Enterococcus faecalis (E. faecalis) NCTC 775; and Enterococcus faecium (E. faecium) NCTC 12204. […] However, it should be noted that the SSA stock solution was prepared in a H2O 5% EtOH solution, to ensure that the SSA aggregates formed were in line with those characterised within the scope of the SSA self-association studies.
(§2) Section 3: Biological methods
(§3) These methods were taken directly from UK Health and Security Office (UKHSA) standard […]
(§4) Preparation of Luria Broth media (LB): Yeast extract (5.0 g), tryptone (10.0 g) and sodium chloride (10.0 g) were dissolved in dH₂O (1.0 L) then divided into bottles and autoclaved.
(§5) Preparation of Luria Broth (LB) agar plates: Agar (6.0 g) was added to LB (400 mL) and autoclaved. Once cool, the LB agar was poured into sterile petri dishes under sterile conditions and allowed to set. LB plates were stored at 4 °C until use.
(§6) Preparation of bacterial plates: Sterile LB agar plates were streaked using streaked using the desired bacteria i) Pseudomonas aeruginosa (P.aeruginosa) PAO1, ii) Klebsiella pneumoniae (K. pneumoniae) M6 iii) E. coli NCTC 12923 and iv) Acinetobacter baumannii (A. baumannii) ATCC 17978 and Gram-positive i) Staphylococcus aureus (S. aureus) ATCC 9144 ii) Enterococcus faecalis (E. faecalis) NCTC 775 and iii) Enterococcus faecium (E. faecium ) NCTC 12204, then incubated at 37 °C overnight.
(§7) Preparation of Inoculum: An initial culture was made up by inoculating LB media (5 mL) with a single colony of bacteria under sterile conditions and incubated at 37 °C with shaking overnight. The following day, overnight bacterial cultures were subcultured into fresh LB medium to a starting OD600 of 0.01.
(§8) Preparation of 96 well microplate for MIC50: The 1:100 cell suspension (150 µL) was dispensed into individual wells under sterile conditions. SSAs (30 µL) were added to the wells to equal a total volume of 180 µL in the wells. Six repeats of each concentration for each SSA were created each plate. The plates were sealed using parafilm, then incubated at 37 °C in a microplate reader for 20 hours. OD600 endpoint data was used to generate growth curves. […]

A. baumannii ATCC 17978 = assay: inhibition of bacterial growth, OD600 after 20 h; format: cell-based, Acinetobacter baumannii; conditions: SSA 5.0 mM, 2.5% ethanol, negative = enhanced growth
Method: as §1, §2, §3, §4, §5, §6, §7, §8

E. faecalis NCTC 775 = assay: inhibition of bacterial growth, OD600 after 20 h; format: cell-based, Enterococcus faecalis; conditions: SSA 5.0 mM, 2.5% ethanol, negative = enhanced growth; for inhibition at 5000 µM: Enterococcus faecalis, NCTC775, 20 h, read-out: Percentage inhibition of bacterial growth, NCTC 775 (E. faecalis)
Method: as §1, §2, §3, §4, §5, §6, §7, §8

[1] = dynamic light scattering (DLS) of SSA aggregates; format: physicochemical; conditions: 5.6 mM, H2O 5.0% EtOH, 298 K
Method: Dynamic light scattering (DLS) and zeta potential measurements in H2O 5.0% EtOH were used to determine the hydrodynamic diameter (dH) and stability of the higher-order SSA aggregates detected by (Q) ^1H NMR spectroscopy at 5.6 mM, Table 1. […] However, we are unable to confidently report a dH for 1 due to the instability of this system, which is supported by a zeta potential value of −26 mV, obtained for this SSA under the same experimental conditions. […] Due to the instability of these systems in the absence of solvent, attempts to further characterise these systems through SEM or AFM are not possible.[48]

[2] = tensiometry: critical aggregate concentration (CAC) and surface tension; format: physicochemical; conditions: for Surface tension at CAC: H2O/5.0 % EtOH
Method: As the (Q) ^1H NMR spectroscopy experiments conducted at 5.6 mM in a D2O 5.0% EtOH solution confirmed the presence of higher-order self-associated structures with solid-like properties, concentration dependent surface tension measurements, obtained through tensiometry, were used to calculate critical aggregate concentration (CAC). Here the CAC is defined as the point at which an increase in SSA concentration no longer decreases surface tension but instead results in the formation of higher-order self-associated structures.

E. coli NCTC 12923 = assay: inhibition of bacterial growth, OD600 after 20 h; format: cell-based, Escherichia coli; conditions: SSA 5.0 mM, 2.5% ethanol, negative = enhanced growth
Method: as §1, §2, §3, §4, §5, §6, §7, §8

E. faecium NCTC 12204 = assay: inhibition of bacterial growth, OD600 after 20 h; format: cell-based, Enterococcus faecium; conditions: SSA 5.0 mM, 2.5% ethanol, negative = enhanced growth; for inhibition at 5000 µM: Enterococcus faecium, NCTC12204, 20 h, read-out: Percentage inhibition of bacterial growth, NCTC 12204 (E. faecium)
Method: as §1, §2, §3, §4, §5, §6, §7, §8

S. aureus ATCC 9144 = assay: inhibition of bacterial growth, OD600 after 20 h; format: cell-based, Staphylococcus aureus; conditions: SSA 5.0 mM, 2.5% ethanol, negative = enhanced growth
Method: as §1, §2, §3, §4, §5, §6, §7, §8

K. pneumoniae M6 = assay: inhibition of bacterial growth, OD600 after 20 h; format: cell-based, Klebsiella pneumoniae; conditions: SSA 5.0 mM, 2.5% ethanol, negative = enhanced growth; for inhibition at 5000 µM: Klebsiella pneumoniae, M6, 20 h, read-out: Percentage inhibition of bacterial growth, M6 (K. pneumoniae)
Method: as §1, §2, §3, §4, §5, §6, §7, §8

[3] = quantitative (Q) 1H NMR spectroscopy, proportion of SSA becoming NMR silent (higher-order aggregates); format: physicochemical
Method: To confirm the presence of higher order self-associative structures quantitative (Q) ^1H NMR spectroscopy studies were undertaken at 5.6 mM in D2O 5% EtOH. Here the ^1H NMR resonances attributed to the EtOH are used as an internal standard.
Table S1 – Overview of results of the quantitative (Q) 1H NMR studies for 1, 3, 5, 7 and 9
5.0 % EtOH . Values given in % represent the observed proportion of the SSA that has become
Table S2 – Overview of results of the quantitative (Q) 1H NMR studies for 2, 4, 6, 8 and 10
5.0 % EtOH. Values given in % represent the observed proportion of anion and cation that has

[4] = 5.6 mM, D2O 5.0% EtOH, 298 K, listed as 10

## COc1ccc(NC(=O)N[C@@H](CCC(=O)O)C(=O)O)cc1 [SSA 5]
P. aeruginosa PAO1
  Percentage inhibition of bacterial growth, PAO1 (P. aeruginosa): 0%
A. baumannii ATCC 17978; listed as 5
  Percentage inhibition of bacterial growth, ATCC 17978 (A. baumannii): 18.61% and 19%
E. faecalis NCTC 775
  inhibition at 5000 µM: 13%
E. faecalis NCTC 775; listed as 5
  Percentage inhibition of bacterial growth, NCTC 775 (E. faecalis): 13%
[1]; listed as 5
  DLS Peak 2 maxima: 1328 nm
  Polydispersity index (%): 22.7 (± 1.5) %
  dH (DLS intensity distribution peak 1 maxima): 153 nm
[2]; H2O 5.0% EtOH, 298 K
  ST at CAC: 58 mN m^−1
[2]; H2O 5.0% EtOH, 298 K, listed as 5
  CAC (footnote in place of a value): ^b (CAC above the limit of solubility)
[2]; listed as 5
  Surface tension at CAC: 58.22 mN/m
E. coli NCTC 12923; listed as 5
  Percentage inhibition of bacterial growth, NCTC 12923 (E. coli): 70.96% and 71%
E. faecium NCTC 12204
  inhibition at 5000 µM: 5.8%
E. faecium NCTC 12204; listed as 5
  Percentage inhibition of bacterial growth, NCTC 12204 (E. faecium): 6%
S. aureus ATCC 9144; listed as 5
  Percentage inhibition of bacterial growth, ATCC 9144 (S. aureus): 12.67% and 13%
K. pneumoniae M6
  inhibition at 5000 µM: 12.8%
K. pneumoniae M6; listed as 5
  Percentage inhibition of bacterial growth, M6 (K. pneumoniae): 13%
[3]; 5.6 mM, D2O 5.0% EtOH, 298 K, listed as 5
  (Q) 1H NMR spectroscopy, proportion NMR silent, acid or anion: 56%
[3]; ~112 mM, DMSO-d6 1.0% DCM
  (Q) 1H NMR, proportion NMR silent, SSA acid or anion: 0%

## O=C(O)CC[C@H](NC(=O)Nc1ccc(Br)cc1)C(=O)O [SSA 10]
A. baumannii ATCC 17978; listed as 10
  Percentage inhibition of bacterial growth, ATCC 17978 (A. baumannii): 49.97% and 50%
E. faecalis NCTC 775
  inhibition at 5000 µM: 23.1%
E. faecalis NCTC 775; listed as 10
  Percentage inhibition of bacterial growth, NCTC 775 (E. faecalis): 23%
[1]; listed as 10
  Polydispersity index (%): 26.0 (± 0.5) %
  dH (DLS intensity distribution peak 1 maxima): 307 nm
[2]; H2O 5.0% EtOH, 298 K
  CAC: 26.00 mM and 26 mM
  ST at CAC: 41 mN m^−1
[2]; listed as 10
  Surface tension at CAC: 41.37 mN/m
E. coli NCTC 12923; Escherichia coli, NCTC12923, 20 h, read-out: Percentage inhibition of bacterial growth, NCTC 12923 (E. coli)
  inhibition at 5000 µM: 67.9%
E. coli NCTC 12923; listed as 10
  Percentage inhibition of bacterial growth, NCTC 12923 (E. coli): 68%
E. faecium NCTC 12204
  inhibition at 5000 µM: 34.1%
E. faecium NCTC 12204; listed as 10
  Percentage inhibition of bacterial growth, NCTC 12204 (E. faecium): 34%
S. aureus ATCC 9144; listed as 10
  Percentage inhibition of bacterial growth, ATCC 9144 (S. aureus): 17.46% and 17%
K. pneumoniae M6
  inhibition at 5000 µM: 32%
K. pneumoniae M6; listed as 10
  Percentage inhibition of bacterial growth, M6 (K. pneumoniae): 32%
[3]; [4]
  (Q) 1H NMR spectroscopy, proportion NMR silent, acid or anion: 38%
  (Q) 1H NMR spectroscopy, proportion NMR silent, cation: 43.6% and 44%
[3]; ~112 mM, DMSO-d6 1.0% DCM
  (Q) 1H NMR, proportion NMR silent, SSA acid or anion: 0%
  (Q) 1H NMR, proportion NMR silent, cation: 0%
